# Test results published in patent US9708314B2, “Heterocyclic amide compound” (NISSAN CHEMICAL INDUSTRIES, LTD., priority 2013, dated 2017).
# Key:
# Type in all cases: in vivo
# Lolium multiflorum Lam. = experiment: Test Example 4: herbicidal effect by application to foliage (diluvial soil, plastic box); details: application to foliage, 320 g/ha
# Procedure, shortened: (§1)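 Plants were grown in sterilized diluvial soil in a greenhouse at 25-30° C for 14 days, then sprayed on stems and leaves with water-diluted emulsion formulation at set rates in g/ha. Weed control and crop injury were scored 3 weeks after treatment on a 0-5 herbicidal-ratio scale, from 0 (≤5%) to 5 (≥90%).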
# Avena fatua = experiment: as above; details: application to foliage, 320 g/ha
# Procedure, shortened: as §1
# Galium spurium = experiment: as above; details: application to foliage, 320 g/ha
# Procedure, shortened: as §1
# Chenopodium album = experiment: as above; details: application to foliage, 320 g/ha
# Procedure, shortened: as §1
# Abutilon theophrasti = experiment: as above; details: application to foliage, 320 g/ha
# Procedure, shortened: as §1
# Digitaria ciliaris = experiment: as above; details: application to foliage, 320 g/ha
# Procedure, shortened: as §1
# Setaria viridis = experiment: as above; details: application to foliage, 320 g/ha
# Procedure, shortened: as §1
# Veronica persica = experiment: as above; details: application to foliage, 320 g/ha
# Procedure, shortened: as §1
# Alopecurus myosuroides = experiment: as above; details: application to foliage, 320 g/ha
# Procedure, shortened: as §1
# [1] = test system: Echinochloa crus-galli var. crus-galli; experiment: as above; details: application to foliage, 320 g/ha
# Procedure, shortened: as §1
# Amaranthus retroflexus = experiment: as above; details: application to foliage, 320 g/ha
# Procedure, shortened: as §1
# Stellaria media = experiment: as above; details: application to foliage, 320 g/ha
# Procedure, shortened: as §1
# Apera spica-venti. = experiment: as above; details: application to foliage, 320 g/ha
# Procedure, shortened: as §1
# [2] = test system: directly sowed Oryza sativa; experiment: Test Example 4: effect on crop by application to foliage (diluvial soil, plastic box); details: application to foliage, 320 g/ha
# Procedure, shortened: as §1
# Triticum aestivum = experiment: as above; details: application to foliage, 320 g/ha
# Procedure, shortened: as §1
# [3] = test system: Beta vulgaris ssp. vulgaris; experiment: as above; details: application to foliage, 320 g/ha
# Procedure, shortened: as §1
# Glycine max = experiment: as above; details: application to foliage, 320 g/ha
# Procedure, shortened: as §1
# Brassica campestris L. = experiment: as above; details: application to foliage, 320 g/ha
# Procedure, shortened: as §1
# Scirpus juncoides = experiment: Test Example 1: herbicidal activity, application before weed generation in submerged conditions; details: Application herbicide amount 320 g/ha; Seventeenth Table
# Procedure, shortened: (§2)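 Pre-emergence application to water surface of submerged pots (4 cm depth, alluvial soil) on sowing day, with 2.5-leaf rice transplanted; emulsion diluted to g/ha rates. Grown in greenhouse at 25–30 °C; 0–5 herbicidal/crop-effect score after three weeks.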
# Monochoria vaginalis = experiment: as above; details: Application herbicide amount 320 g/ha; Seventeenth Table
# Procedure, shortened: as §2
# [4] = test system: Echinochloa oryzacola Vasing.; experiment: as above; details: Application herbicide amount 320 g/ha; Seventeenth Table
# Procedure, shortened: as §2
SMILES,"herbicidal effect, K (Lolium multiflorum Lam.) (Lolium multiflorum Lam.)","herbicidal effect, I (Avena fatua) (Avena fatua)","herbicidal effect, Q (Galium spurium) (Galium spurium)","herbicidal effect, O (Chenopodium album) (Chenopodium album)","herbicidal effect, M (Abutilon theophrasti) (Abutilon theophrasti)","herbicidal effect, F (Digitaria ciliaris) (Digitaria ciliaris)","herbicidal effect, G (Setaria viridis) (Setaria viridis)","herbicidal effect, R (Veronica persica) (Veronica persica)","herbicidal effect, J (Alopecurus myosuroides) (Alopecurus myosuroides)","herbicidal effect, H (Echinochloa crus-galli var. crus-galli) [1]","herbicidal effect, N (Amaranthus retroflexus) (Amaranthus retroflexus)","herbicidal effect, P (Stellaria media) (Stellaria media)","herbicidal effect, L (Apera spica-venti.) (Apera spica-venti.)","effect on crop, d (directly sowed Oryza sativa) [2]","effect on crop, e (Triticum aestivum) (Triticum aestivum)","effect on crop, f (Beta vulgaris ssp. vulgaris) [3]","effect on crop, c (Glycine max) (Glycine max)","effect on crop, g (Brassica campestris L.) (Brassica campestris L.)",B: Scirpus juncoides (herbicidal effect grade) (Scirpus juncoides),C: Monochoria vaginalis (herbicidal effect grade) (Monochoria vaginalis),also measured
CCN(CC)c1nnc2c(C(=O)Nc3nnnn3C)ccc(C(F)(F)F)n12 [2-089],1 (Herbicidal ratio of 5% or more and less than 20%),1 (Herbicidal ratio of 5% or more and less than 20%),3 (Herbicidal ratio of 40% or more and less than 70%),5 (Herbicidal ratio of 90% or more (almost completely withered)),4 (Herbicidal ratio of 70% or more and less than 90%),4 (Herbicidal ratio of 70% or more and less than 90%),4 (Herbicidal ratio of 70% or more and less than 90%),5 (Herbicidal ratio of 90% or more (almost completely withered)),2 (Herbicidal ratio of 20% or more and less than 40%),4 (Herbicidal ratio of 70% or more and less than 90%),4 (Herbicidal ratio of 70% or more and less than 90%),5 (Herbicidal ratio of 90% or more (almost completely withered)),4 (Herbicidal ratio of 70% or more and less than 90%),4 (Herbicidal ratio of 70% or more and less than 90%),0 (Herbicidal ratio of 5% or less (almost no effect)),5 (Herbicidal ratio of 90% or more (almost completely withered)),0 (Herbicidal ratio of 5% or less (almost no effect)),4 (Herbicidal ratio of 70% or more and less than 90%),5 (Herbicidal ratio of 90% or more (almost completely withered)),5 (Herbicidal ratio of 90% or more (almost completely withered)),A: Echinochloa oryzicola Vasing. (herbicidal effect grade) [4]: 5 (Herbicidal ratio of 90% or more (almost completely withered))
Cn1nnnc1NC(=O)c1ccc(C(F)(F)F)n2c(SCC3CCCO3)nnc12 (stereo not drawn) [2-085],3 (Herbicidal ratio of 40% or more and less than 70%),4 (Herbicidal ratio of 70% or more and less than 90%),4 (Herbicidal ratio of 70% or more and less than 90%),5 (Herbicidal ratio of 90% or more (almost completely withered)),5 (Herbicidal ratio of 90% or more (almost completely withered)),5 (Herbicidal ratio of 90% or more (almost completely withered)),5 (Herbicidal ratio of 90% or more (almost completely withered)),4 (Herbicidal ratio of 70% or more and less than 90%),3 (Herbicidal ratio of 40% or more and less than 70%),5 (Herbicidal ratio of 90% or more (almost completely withered)),5 (Herbicidal ratio of 90% or more (almost completely withered)),5 (Herbicidal ratio of 90% or more (almost completely withered)),4 (Herbicidal ratio of 70% or more and less than 90%),5 (Herbicidal ratio of 90% or more (almost completely withered)),3 (Herbicidal ratio of 40% or more and less than 70%),5 (Herbicidal ratio of 90% or more (almost completely withered)),2 (Herbicidal ratio of 20% or more and less than 40%),4 (Herbicidal ratio of 70% or more and less than 90%),5 (Herbicidal ratio of 90% or more (almost completely withered)),4 (Herbicidal ratio of 70% or more and less than 90%),A: Echinochloa oryzicola Vasing. (herbicidal effect grade) [4]: 5 (Herbicidal ratio of 90% or more (almost completely withered))
CN(c1nnc2c(C(=O)Nc3nnnn3C)ccc(C(F)(F)F)n12)C1CCCCC1 [2-083],1 (Herbicidal ratio of 5% or more and less than 20%),2 (Herbicidal ratio of 20% or more and less than 40%),3 (Herbicidal ratio of 40% or more and less than 70%),5 (Herbicidal ratio of 90% or more (almost completely withered)),5 (Herbicidal ratio of 90% or more (almost completely withered)),5 (Herbicidal ratio of 90% or more (almost completely withered)),4 (Herbicidal ratio of 70% or more and less than 90%),4 (Herbicidal ratio of 70% or more and less than 90%),1 (Herbicidal ratio of 5% or more and less than 20%),5 (Herbicidal ratio of 90% or more (almost completely withered)),5 (Herbicidal ratio of 90% or more (almost completely withered)),4 (Herbicidal ratio of 70% or more and less than 90%),1 (Herbicidal ratio of 5% or more and less than 20%),4 (Herbicidal ratio of 70% or more and less than 90%),0 (Herbicidal ratio of 5% or less (almost no effect)),5 (Herbicidal ratio of 90% or more (almost completely withered)),0 (Herbicidal ratio of 5% or less (almost no effect)),1 (Herbicidal ratio of 5% or more and less than 20%),5 (Herbicidal ratio of 90% or more (almost completely withered)),4 (Herbicidal ratio of 70% or more and less than 90%),A: Echinochloa oryzicola Vasing. (herbicidal effect grade) [4]: 5 (Herbicidal ratio of 90% or more (almost completely withered))
